The text below walks through data of ChEMBL document CHEMBL5150054, “Pyrazole-containing pharmaceuticals: target, pharmacological activity, and their SAR studies” (RSC Med Chem, 2022).

Data set [1] can be described thus: Dissociation constant, pKa of compound. The class given is physicochemical.
The target of data set [2] is cGMP-specific 3',5'-cyclic phosphodiesterase (Homo sapiens, UniProt O76074).
Description: Inhibition of PDE5 (unknown origin)
Data set [3] is described as follows: Inhibition of GABA receptor BZ domain (unknown origin). Also noted: species or system Homo sapiens.
The target in a further data set is Plasma kallikrein (Homo sapiens, UniProt P03952). Put plainly: Inhibition of plasma kallikrein (unknown origin).
Sequence of Plasma kallikrein (P03952 20-390 limits assumed): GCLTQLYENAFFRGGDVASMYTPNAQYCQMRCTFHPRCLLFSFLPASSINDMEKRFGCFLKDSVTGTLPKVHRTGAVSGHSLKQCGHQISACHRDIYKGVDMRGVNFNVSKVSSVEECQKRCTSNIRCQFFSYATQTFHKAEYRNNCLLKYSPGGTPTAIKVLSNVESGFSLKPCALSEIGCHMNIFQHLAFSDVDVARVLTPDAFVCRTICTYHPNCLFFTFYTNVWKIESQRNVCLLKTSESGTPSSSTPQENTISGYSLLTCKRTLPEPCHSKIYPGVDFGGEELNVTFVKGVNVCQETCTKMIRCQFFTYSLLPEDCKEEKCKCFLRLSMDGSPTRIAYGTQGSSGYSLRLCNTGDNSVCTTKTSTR
Sequence of Plasma kallikrein (P03952 391-638 limits assumed): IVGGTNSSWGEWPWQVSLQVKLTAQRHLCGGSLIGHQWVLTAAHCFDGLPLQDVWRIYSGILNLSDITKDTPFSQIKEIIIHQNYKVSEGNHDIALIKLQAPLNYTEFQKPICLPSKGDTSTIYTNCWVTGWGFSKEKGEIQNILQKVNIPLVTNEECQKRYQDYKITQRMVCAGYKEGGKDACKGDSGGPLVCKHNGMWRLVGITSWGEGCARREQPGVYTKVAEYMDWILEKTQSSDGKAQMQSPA

In turn, `CCCCc1nn(-c2ccccc2Cl)c(C(=O)O)c1Cc1ccc(-c2ccccc2-c2nn[nH]n2)cc1` gave a pKa in data set [1] of 7.1.

For `CCCOc1ccc(S(=O)(=O)NCCC2CCCN2C)cc1-c1nc2c(CCC)nn(C)c2c(=O)[nH]1` (stereo not given), the half-maximal inhibitory concentration (IC50) in data set [2] stood at 8.25 nM.

`CCN(C(C)=O)c1cccc(-c2ccnc3c(C#N)cnn23)c1` [ZALEPLON] gave a half-inhibitory concentration (IC50) in data set [3] of 167 nM.

At Plasma kallikrein, `N#Cc1cccc([C@@H](NCC2CC2)c2ccc(F)c(NC(=O)c3cc(C(F)(F)F)nn3-c3cccc(CN)c3)c2)c1` [BEROTRALSTAT] yielded an IC50 of 1 nM.

Consider `CCCCc1nc(-c2ccccc2Cl)c(C(=O)O)n1Cc1ccc(-c2ccccc2-c2nn[nH]n2)cc1`, for which the pKa in data set [1] came out at 2.5.

As a reminder, the pKa is the pH at which an ionisable group is half protonated. Read a high pKa as a weaker acid or stronger base. The term IC50 denotes the concentration needed to halve the response being measured. Higher therefore signals lower potency.
